The values below come from patent US11230532B2, “Pyrimidines and variants thereof, and uses therefor” (Afferent Pharmaceuticals Inc., priority 2016, dated 2022).

Read-outs that look alike come from different tables or passages of the source.

The subject of test [1] is P2X3. The settings on record: oxygen-linked analogs; from Carter et al, Bioorg Med Chem Lett 2009; cited from earlier work.
The test system of test [2] is P2X3. The test is described as follows: Mean pIC50s at P2X3 from Carter et al (literature). It is filed as cell-based.
The target of test [3] is T1, human P2X2/3 receptor (heteromeric P2X2/3 channels) (Homo sapiens, UniProt P56373+Q9UBL9).
T1 construct: expressed in transfected cells; host or cells: 1321N1 human astrocytoma cells (1321N1-hP2X2/3)
T1 sequence (P56373 1-397): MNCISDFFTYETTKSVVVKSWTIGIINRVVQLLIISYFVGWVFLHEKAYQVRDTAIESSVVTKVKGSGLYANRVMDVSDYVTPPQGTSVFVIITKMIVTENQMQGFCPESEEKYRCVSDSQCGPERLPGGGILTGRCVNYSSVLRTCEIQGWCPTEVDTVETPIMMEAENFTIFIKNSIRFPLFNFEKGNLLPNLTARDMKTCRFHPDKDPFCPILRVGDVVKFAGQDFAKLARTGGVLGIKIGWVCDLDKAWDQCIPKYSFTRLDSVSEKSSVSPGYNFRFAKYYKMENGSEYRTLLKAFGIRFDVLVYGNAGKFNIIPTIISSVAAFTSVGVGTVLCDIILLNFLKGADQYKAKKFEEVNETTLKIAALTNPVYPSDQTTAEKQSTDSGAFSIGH
T1 sequence (Q9UBL9 1-471): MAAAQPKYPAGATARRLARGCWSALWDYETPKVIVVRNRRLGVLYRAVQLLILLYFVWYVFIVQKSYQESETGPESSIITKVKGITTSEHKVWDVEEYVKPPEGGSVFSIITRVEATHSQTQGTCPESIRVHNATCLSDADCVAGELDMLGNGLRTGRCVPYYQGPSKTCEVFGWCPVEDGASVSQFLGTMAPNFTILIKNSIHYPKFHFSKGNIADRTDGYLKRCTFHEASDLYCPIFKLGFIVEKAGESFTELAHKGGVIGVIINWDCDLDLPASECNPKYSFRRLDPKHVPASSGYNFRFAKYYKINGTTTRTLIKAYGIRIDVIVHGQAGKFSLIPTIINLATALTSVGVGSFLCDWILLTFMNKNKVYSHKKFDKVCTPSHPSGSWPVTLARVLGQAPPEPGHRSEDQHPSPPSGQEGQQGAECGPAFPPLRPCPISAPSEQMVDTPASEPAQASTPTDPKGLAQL
As to the kind of experiment: FlexStation calcium fluorescence assay, heteromeric P2X2/3 channels (1321N1-hP2X2/3 cells). It is filed as cell-based. Particulars: agonist 3 μM ATP, highest concentration tested 10 μM, read-out: Average pIC50 P2X2/3 (converted). On the procedure: (§1) 1321N1 human astrocytoma and HEK293 human embryonic kidney cells were stably transfected with human P2X2 and P2X3 receptor subunits to form heteromeric P2X2/3 channels and passaged in flasks. Additionally, HEK293 cells were stably transfected with human P2X3 receptor subunits to form homomeric P2X3 channels.
(§2) Approximately 24 hours before the FlexStation calcium fluorescence experiment, cells were released from their flasks, centrifuged and re-suspended in nutrient medium. The cells were aliquoted into black-wall, clear-bottom 96 well plates at a density of 25,000 cells per well and incubated overnight in a humidified, CO2-enriched (5%) atmosphere at 37° C.
(§3) On the day of the experiment, cells were washed with assay buffer (calcium- and magnesium-free Hank's balanced salt solution, 20 mM HEPES, 2 mM CaCl2; AB) and loaded with 4 μM Fluo-4 (P2X2/3) or Calcium 6 (Molecular Devices, according to manufacturer's instructions; P2X3) calcium-sensitive fluorescent dye in 100 μL AB.
(§4) After 1 hour of dye loading at 37° C., 1321N1-hP2X2/3 cells were washed two times with AB and test compound or vehicle added to each well in a total volume of 150 μL AB. HEK-hP2X3 cells were not washed because the Calcium 6 dye kit includes an extracellular dye that quenches unabsorbed Calcium 6 dye; test compound or vehicle were added directly to the assay plates to achieve the appropriate concentration of test compound in a total volume of 150 μL AB.
(§5) After 20 minutes incubation at RT and protected from light, the assay plates were loaded into the FlexStation microplate reader and baseline fluorescence measured with an excitation wavelength of 485 nm and emission wavelength readings centered at 525 nm (515 nm cut off).
(§6) The agonist was dispensed by the FlexStation during fluorescence measurement to construct agonist activation and antagonist inhibition curves. The final agonist concentration for inhibition was 1 μM α,β-meATP for P2X3 and 3 μM ATP for P2X2/3. Peak fluorescence was measured and curves generated using a four parameter nonlinear regression equation.

The target in test [4] is T2, human P2X3 receptor (homomeric P2X3 channels) (Homo sapiens, UniProt P56373).
T2 construct: expressed in transfected cells; host or cells: HEK293 human embryonic kidney cells (HEK-hP2X3)
T2 sequence (P56373 1-397): T1 sequence (P56373 1-397)
The test is described as follows: FlexStation calcium fluorescence assay, homomeric P2X3 channels (HEK-hP2X3 cells). It is filed as cell-based. Particulars: for IC50: HEK293 cells stably transfected with human P2X3, agonist 1 μM α,β-meATP, highest concentration tested 10 μM, read-out: Average pIC50 P2X3 (converted); for Selectivity P2X3/P2X2/3: potency ratio P2X3 over P2X2/3 from pIC50s. On the procedure:
as §1, §2, §3, §4, §5, §6

Take `COc1cc(C(C)C)c(Oc2cnc(N)nc2N)cc1I` [B, X = O]: the “P2X3 mean pIC50, X = O” value in the test with P2X3 [1] is given as 8.0. The “Selectivity, X = O” value in the test with P2X3 [2] amounted to 8.
For the molecule `COc1cc(C(C)C)c(Oc2cnc(N)nc2N)cc1S(C)(=O)=O` [C, X = O], in the test with P2X3 [1], the “P2X3 mean pIC50, X = O” value is 7.0. Moreover, the “Selectivity, X = O” value with P2X3 [2] was determined as 10.
Regarding `COc1nc(C(C)C)c(Sc2cnc(N)nc2N)cc1Br` [Compound 24], in test [3], the IC50 was 0.398 µM. In test [4], the IC50 was 100 nM and the “Selectivity P2X3/P2X2/3” value amounted to 4.
Take `COc1cc(Oc2cnc(N)nc2N)c(C(C)C)cc1OC` [Row A, X = O, reference compound]: in the test on P2X3 [1], the “P2X3 mean pIC50, X = O” value is given as 7.6.
Take `COc1cc(C(C)C)c(Nc2cnc(N)nc2N)cc1Cl` [Compound 39]: the IC50 in test [3] was 5.01 µM. Besides, in test [4], the IC50 was 25.1 nM and the “Selectivity P2X3/P2X2/3” value amounted to 208.
With `COc1cc(Nc2cnc(N)nc2N)c(C(C)C)nc1OC` [Compound 44], in test [3], the IC50 was 2 µM. For the same molecule, in test [4], the IC50 was 10 nM and the “Selectivity P2X3/P2X2/3” value was determined as 225.
For `COc1nc(C(C)C)c(Nc2cnc(N)nc2N)cc1S(C)(=O)=O` [Compound 36], the IC50 in test [3] is > 10 µM. In addition, in test [4], the IC50 is 25.1 nM and the “Selectivity P2X3/P2X2/3” value is on record as >370.
The like results for `COc1nc(C(C)C)c(Oc2cnc(N)nc2N)cc1S(C)(=N)=O` (stereo not shown) [Compound 43] were, in that order, > 10 µM, 3160 nM and >3.4.
As for `COc1cc(C(C)C)c(Oc2cnc(N)nc2N)cc1Cl` [D, X = O], the “P2X3 mean pIC50, X = O” value with P2X3 [1] was 7.6. In addition, in the test on P2X3 [2] (potency ratio P2X3 over P2X2/3 from the cited pIC50s), the “Selectivity, X = O” value was found to be 4.
In the case of `COc1cc(C(C)C)c(Nc2cnc(N)nc2N)cc1C(F)(F)F` [Compound 40], in test [3], the IC50 is > 10 µM. Moreover, in test [4], the IC50 was 79.4 nM and the “Selectivity P2X3/P2X2/3” value is listed as >123.
On to `CCc1cc(OC)c(S(C)(=O)=O)cc1Sc1cnc(N)nc1N` [Compound 22], for which the IC50 in test [3] is > 10 µM. For the same molecule, in test [4], the IC50 was 3980 nM and the “Selectivity P2X3/P2X2/3” value is recorded as >3.
